Laboratory results as given in patent publication US20050239756A1, “Methods of treating various vitamin D metabolism conditions with 1alpha-hydroxyvitamin D2” (Bone Care International, Inc., priority 2004, published 2005).
Several values for one entry are separate records, joined by “and”; a condition that tells them apart may be missing. Identical values can stand only once.

What was measured:
[1] = system: subjects with low serum calcium; test: 24-week oral doxercalciferol therapy in subjects with low serum calcium (Example 3); assay type: in vivo, human
Protocol: 1α-(OH)D2 (doxercalciferol) is used as a treatment for subjects with low serum calcium in a study involving 50 adults, ages 18-85 years. The subjects have serum calcium levels below 8.6 mg/dL and complete an eight-week baseline period and then 24 weeks of therapy with orally administered doxercalciferol. The initial dose of 1α-(OH)D2 is 2 capsules daily (totaling 1.0 μg), with increases in steps of one capsule per day permitted after four weeks. The maximum dosage is limited to 10 capsules per day (5.0 μg/day of doxercalciferol). Subjects are monitored at regular intervals for plasma iPTH, serum calcium and phosphorus, 24-hour and fasting urinary calcium, bone-specific serum markers, plasma total 1α,25-(OH)2D, and routine blood chemistries and hematologies.

[2] = system: postmenopausal osteoporotic outpatients; test: 104-week placebo-controlled study of oral 1α-(OH)D2 in postmenopausal osteoporotic outpatients (Example 1); assay type: in vivo, human
Excerpt: 1α-(OH)D2 was used to treat osteoporosis was confirmed in a study involving 60 postmenopausal osteoporotic outpatients. […] Exclusion criteria encompassed significant medical disorders and recent use of medications known to affect bone or calcium metabolism. On admission to the study, each subject was assigned at random to one of two treatment groups; one group received up to a 104-week course of therapy with 1α-(OH)D2; the other received only placebo therapy. All subjects received instruction on selecting a daily diet containing 700-900 mg of calcium and were advised to adhere to this diet over the course of the study. Compliance to the diet was verified at regular intervals by 24-hour food records and by interviews with each subject. During the treatment period, subjects from one group orally self-administered 1α-(OH)D2 at an initial dosage of 1.0 μg/day for one week, and increased the dosage to 2.0, 3.0, 4.0 μg/day in each of the following weeks, to a maximum dosage of 5.0 μg/day. The dosage for any given subject was increased in this way until the rate of urinary calcium excretion was elevated to approximately 275-300 mg/24 hours, at which point the subject held the dosage constant at the highest level attained. Subjects from the second group self-administered a matching placebo medication every day, titrating the apparent dosage upwards in the same manner as subjects being treated with 1α-(OH)D2. Spinal and femoral neck BMD were measured in all subjects by DEXA at the beginning of the study, and at six-month intervals thereafter. Intestinal calcium absorption was estimated in all subjects by a single isotope technique at the beginning of the study, and at 12-month intervals. Serum levels of vitamin D metabolites were determined by radioreceptor binding assays at baseline and at six-month intervals. Serum osteocalcin, serum PTH and urine hydroxyproline also were determined at baseline and at six-month intervals. Other blood and urine chemistries were monitored at regular intervals during the treatment period. These chemistries included serum calcium, serum ionized calcium, urine calcium, blood urea nitrogen, serum creatinine and creatinine clearance. Kidney-ureter-bladder (KUB) x-rays were obtained at baseline and at 12-month intervals thereafter.

[3] = system: subjects with low serum 1,25-dihydroxyvitamin D; test: 24-week oral doxercalciferol therapy in subjects with low serum 1,25-dihydroxyvitamin D (Example 4); assay type: in vivo, human
Protocol: 1α-(OH)D2 (doxercalciferol) is used as a treatment for subjects with low serum 1,25-dihydroxyvitamin D in a study involving 50 adults, ages 18-85 years. The subjects have serum 1,25-dihydroxyvitamin D levels below […] and complete an eight-week baseline period and then 24 weeks of therapy with orally administered doxercalciferol. The initial dose of 1α-(OH)D2 is 2 capsules daily (totaling 1.0 μg), with increases in steps of one capsule per day permitted after four weeks. The maximum dosage is limited to 10 capsules per day (5.0 μg/day of doxercalciferol). Subjects are monitored at regular intervals for plasma iPTH, serum calcium and phosphorus, 24-hour and fasting urinary calcium, bone-specific serum markers, plasma total 1α,25-(OH)2D, and routine blood chemistries and hematologies.

[4] = system: subjects with chronic kidney disease with elevated blood PTH; test: 24-week double-blinded placebo-controlled study of oral doxercalciferol in secondary hyperparathyroidism with mild to moderate chronic kidney disease (Example 2); assay type: in vivo, human; details: for Mean (±SE) plasma iPTH: baseline 219.1±22.3 pg/mL
Excerpt: 1α-(OH)D2 (doxercalciferol) was used as a treatment for hyperparathyroidism associated with chronic kidney disease was confirmed in a study involving 55 adults, ages 18-85 years, with mild to moderate chronic kidney disease. The subjects had plasma intact parathyroid hormone (iPTH) levels above 85 pg/mL and completed an eight-week baseline period and then 24 weeks of therapy with either orally administered doxercalciferol or placebo. The initial dose of test drug was 2 capsules daily (totaling 1.0 μg for subjects randomized to doxercalciferol treatment), with increases in steps of one capsule per day permitted after four weeks. The maximum dosage was limited to 10 capsules per day (5.0 μg/day of doxercalciferol). Subjects were monitored at regular intervals for plasma iPTH, serum calcium and phosphorus, 24-hour and fasting urinary calcium, bone-specific serum markers, plasma total 1α,25-(OH)2D, and routine blood chemistries and hematologies. Glomerular filtration rate (GFR) was measured prior to beginning the treatment and at study termination. No physical or biochemical differences were detectable between the two treatment groups prior to starting treatment. […] On enrollment, each subject was assigned, at random, in double-blinded fashion, to one of two treatment groups. Both treatment groups completed an 8-week Baseline Period (Weeks −8 to 0) and then underwent therapy with either orally administered doxercalciferol or placebo for a 24-week Treatment Period (Weeks 1 to 24). Irrespective of treatment group assignment, each subject discontinued any 1α,25-dihydroxivitamin D3 (1α,25(OH)2D3) therapy for the duration of the study. Throughout the Baseline Period and the subsequent Treatment Period, subjects were monitored at regular intervals for plasma iPTH, serum calcium, serum phosphorus, and 24-hour and fasting urinary calcium, phosphorus and creatinine. Routine blood chemistries and hematologies, bone-specific serum markers, and plasma total 1α,25(OH)2D were also monitored at selected intervals. Glomerular filtration rate (GFR) was measured prior to beginning treatment and at termination. Subjects qualified for inclusion in the Baseline Period if they were aged 18 to 85 years, had mild to moderate CR1 with serum creatinine between 1.8 to 5.0 mgldL (for men) or 1.6 to 4.0 mg/dL (for women), and had elevated plasma iPTH values (>85 pg/mL). Subjects receiving ongoing treatment with estrogen were required to maintain the same estrogen dosing regimen throughout the study. Subjects who began dialysis treatment or underwent renal transplantation were required to prematurely terminate participation. […] Patients were also excluded who had hypercalcemia, hyperthyroidism, sarcoidosis, malignancy requiring chemotherapy, hormonal therapy and/or radiation treatment, chronic gastrointestinal disease (i.e., malabsorption, surgery affecting absorption, and chronic ulcerative colitis), hepatic impairment, or any other condition which may have put the patient at undue risk. […] The two studies were conducted under double-blind conditions in each geographical region. Assignments of subjects to the two treatment groups were made randomly, by geographical region, in order of enrollment. The randomization was accomplished in subgroups of size 10, 5 subjects assigned to each of the two treatment groups. The randomization was performed by an independent statistician using the Statistical Analysis System (SAS). 1α-hydroxyvitamin D2 (available as doxercalciferol from Bone Care International) was formulated for oral administration as soft elastic gelatin capsules in units of 0.5 mcg/capsule. […] The initial dose of test drug (doxercalciferol or placebo) was 2 capsules (totaling a 1.0 μg dose for subjects receiving doxercalciferol) every day before breakfast. This dosage was increased as necessary at monthly intervals, to suppress plasma iPTH levels by at least 30% from baseline. […]

PTH levels = details: Malluche et al., Nephrol. Dial. Transplant., 2004; cited from earlier work
[5] = after the 24 week treatment period
[6] = Treatment Period, active treatment

Compound: C=C1/C(=C\C=C2/CCC[C@]3(C)[C@@H]([C@H](C)/C=C/[C@H](C)C(C)C)CC[C@@H]23)C[C@@H](O)C[C@@H]1O [1α-(OH)D2, 1α-hydroxyvitamin D2]
- Average serum phosphorous levels [1, 5]: 2.4 to 5 mg/dL
- Serum bone-specific markers alkaline phosphatase, N- and C-telopeptides, and osteocalcin [1, 5]: average normal levels
- Serum 1,25-dihydroxyvitamin D levels between doses ([1]; between doses of 1α-(OH)D2): within the patients normal historical physiological range
- Increase in intestinal absorption of orally administered Ca relative to placebo control ([2]; after 52 weeks, P<0.001): 40%
- Increase in intestinal absorption of orally administered Ca relative to placebo control ([2]; after 104 weeks, P<0.5): 29%
- Decrease in serum levels of PTH relative to placebo therapy ([2]; at 1-4 weeks (so in the source)): 25%
- Increase in mean serum total 1α,25-(OH)2D3 relative to placebo therapy ([2]; at 24 months, P<0.01): 49%
- Decrease in serum levels of PTH relative to placebo therapy ([2]; at 52 weeks): 17%
- Increase in mean serum total 1α,25-(OH)2D3 relative to placebo therapy ([2]; at six months, P<0.05): 21%
- Mean urine calcium during initial titration period ([2]; dosage titrated 1.0 to 5.0 μg/day): increased during the initial titration period in a dose-response fashion
- Serum 1α,25-(OH)2D2 ([2]; during treatment): dramatic rise
- Mild hypercalcemia (10.2-10.4 mg/dL), subjects affected ([2]; first year): four
- Moderate hypercalcemia (10.4-10.8 mg/dL), subjects affected ([2]; over the course of the study, prescribed dosages 5.0 μg/day): two
- Hypercalciuria observed occasionally, subjects affected ([2]; over the two-year study): 17 subjects
- Marked hypercalcemia (>10.8 mg/dL), subjects affected ([2]; prescribed dosage 5.0 μg/day, in association with an intercurrent illness): one
- Mild hypercalcemia (10.2-10.4 mg/dL), subjects affected ([2]; second year): two
- Bone mineral density (BMD) in the L2-L4 vertebrae ([2]; two-year study, decreased with placebo, difference P<0.05 after 24 months): progressively increased
- Average serum phosphorous levels [3, 5]: 2.4 to 5 mg/dL
- Serum bone-specific markers alkaline phosphatase, N- and C-telopeptides, and osteocalcin [3, 5]: average normal levels
- Serum 1,25-dihydroxyvitamin D levels between doses ([3]; between doses of 1α-(OH)D2): within the patients normal historical physiological range
- Renal function and rates of adverse events vs placebo ([4]; 24 weeks): No differences between treatment groups
- Subjects achieving plasma iPTH suppression of ≧30% from baseline (percentage) ([4]; 27 subjects in the active group, mean of Weeks 20 and 24, placebo 7.1%): 74%
- Episodes of hypercalciuria (24-hour urine calcium >200 mg or fasting urine Ca/Cr ratio above 0.25) ([4]; Treatment Period): No episodes
- Episodes of hyperphosphatemia (serum phosphorus >5.0 mg/dL) [4, 6]: 15 episodes
- Subjects with hyperphosphatemia (serum phosphorus >5.0 mg/dL) [4, 6]: 10 subjects
- Mean serum osteocalcin, upward trend from baseline ([4]; Week 4): ~10%
- Mean (±SE) plasma iPTH ([4]; Week 4): 165 ± 15 pg/mL
- Mean reduction of plasma iPTH from baseline ([4]; Week 8): 26.3%
- Mean serum osteocalcin, decline from baseline ([4]; Week 24): about 20%
- Mean (±SE) serum phosphorus ([4]; Week 24, baseline 4.02±0.15 mg/dL): 4.27 ± 0.13 mg/dL
- Mean (±SE) serum calcium ([4]; Week 24, baseline 8.74±0.12 mg/dL): 9.14 ± 0.11 mg/dL
- Mean (±SE) plasma iPTH ([4]; Week 24, p<0.001 vs. baseline): 118 ± 17 pg/mL
- Mean reduction (suppression) of plasma iPTH from baseline ([4]; Week 24, p<0.001): 45.6%
- Mean alkaline phosphatase ([4]; Weeks 16 and 24, p<0.05): reduced significantly from baseline
- Mean serum total 1,25-dihydroxyvitamin D levels ([4]; all treatment weeks, did not differ significantly between groups): increased significantly from baseline
- Mean reduction in serum bone-specific alkaline phosphatase (BSAP) from baseline ([4]; by Week 16): 19.7±3.7%
- Mean reduction in serum bone-specific alkaline phosphatase (BSAP) from baseline ([4]; by Week 24): 27.9±4.6%
- Rise in mean serum 1,25-dihydroxyvitamin D from baseline levels ([4]; during treatment, no change in placebo group): ~50%
- iPTH increase in an individual subject ([4]; end of treatment, one subject): 3.9%
- iPTH reduction in individual subjects not reaching ≧30% suppression ([4]; end of treatment, single subjects, listed as doxercalciferol): 24.0% and 24.2% and 19.6%
- Duration of hypercalcemia episode ([4]; episode with onset in Week 4): 5 weeks
- Maximum serum calcium recorded during hypercalcemia episode ([4]; episode with onset in Week 4, one subject): 10.9 mg/dL
- Duration of hypercalcemia episode ([4]; episode with onset in Week 16): 8 weeks
- Maximum serum calcium recorded during hypercalcemia episode ([4]; episode with onset in Week 16, one subject): 11.0 mg/dL
- Episodes of hypercalcemia (corrected serum calcium >10.7 mg/dL) ([4]; in one subject, onsets Week 4 and Week 16): Two
- Subjects achieving plasma iPTH suppression of ≧30% from baseline (number) ([4]; of 27 subjects in the active group, mean of Weeks 20 and 24): 20 subjects
- Serum calcium in the excepted subject during treatment ([4]; one subject with pre-treatment serum calcium as high as 10.7 mg/dL): 11.0 mg/dL
- iPTH increase in a subject at discontinuation ([4]; one subject, discontinued in Week 5): 22.8%
- Plasma iPTH suppression from baseline in a subject at discontinuation ([4]; one subject, discontinued in Week 8): 27.9%
- Plasma iPTH suppression in a subject at discontinuation ([4]; one subject, discontinued in Week 17): 44.4%
- Serum C- and N-telopeptides and bone-specific alkaline phosphate ([4]; relative to baseline and placebo treatment, p<0.01): decreased

Compound: C=C1/C(=C\C=C2/CCC[C@]3(C)[C@@H]([C@H](C)CCCC(C)(C)O)CC[C@@H]23)C[C@@H](O)C[C@@H]1O [calcitriol, 1,25-dihydroxyvitamin D3]
- Effect of treatment on PTH levels (PTH levels): over suppression of PTH levels
